# Measurements from US10670605B2, “Cysteine reactive probes and uses thereof” (The Scripps Research Institute, priority 2015, dated 2020).
# Key:
# Test in all cases: Competitive isoTOP-ABPP in situ (fragment-treated cells)
# Assay type in all cases: cell-based
# Settings in all cases: 200 μM, insitu, 231
# [1] = target: cysteines in MDA-MB-231 and Ramos cells (Homo sapiens, UniProt O00299)
# [2] = target: cysteines in MDA-MB-231 and Ramos cells (Homo sapiens, UniProt P04406)
# [3] = target: T1, cysteines in MDA-MB-231 and Ramos cells (Homo sapiens, UniProt P46734)
# T1 sequence (P46734 1-347): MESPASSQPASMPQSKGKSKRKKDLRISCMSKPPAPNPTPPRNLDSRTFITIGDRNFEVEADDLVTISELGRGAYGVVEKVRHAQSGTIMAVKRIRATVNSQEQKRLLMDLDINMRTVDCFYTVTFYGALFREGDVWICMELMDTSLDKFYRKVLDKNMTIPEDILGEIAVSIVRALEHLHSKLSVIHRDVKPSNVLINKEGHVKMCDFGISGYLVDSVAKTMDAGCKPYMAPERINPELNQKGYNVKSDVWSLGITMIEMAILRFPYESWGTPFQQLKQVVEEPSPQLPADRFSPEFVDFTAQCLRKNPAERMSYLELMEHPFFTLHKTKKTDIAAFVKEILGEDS
# [4] = target: cysteines in MDA-MB-231 and Ramos cells (Homo sapiens, UniProt Q14997)
# Sequence of cysteines in MDA-MB-231 and Ramos cells (Homo sapiens, UniProt Q14997) (Q14997 whole entry): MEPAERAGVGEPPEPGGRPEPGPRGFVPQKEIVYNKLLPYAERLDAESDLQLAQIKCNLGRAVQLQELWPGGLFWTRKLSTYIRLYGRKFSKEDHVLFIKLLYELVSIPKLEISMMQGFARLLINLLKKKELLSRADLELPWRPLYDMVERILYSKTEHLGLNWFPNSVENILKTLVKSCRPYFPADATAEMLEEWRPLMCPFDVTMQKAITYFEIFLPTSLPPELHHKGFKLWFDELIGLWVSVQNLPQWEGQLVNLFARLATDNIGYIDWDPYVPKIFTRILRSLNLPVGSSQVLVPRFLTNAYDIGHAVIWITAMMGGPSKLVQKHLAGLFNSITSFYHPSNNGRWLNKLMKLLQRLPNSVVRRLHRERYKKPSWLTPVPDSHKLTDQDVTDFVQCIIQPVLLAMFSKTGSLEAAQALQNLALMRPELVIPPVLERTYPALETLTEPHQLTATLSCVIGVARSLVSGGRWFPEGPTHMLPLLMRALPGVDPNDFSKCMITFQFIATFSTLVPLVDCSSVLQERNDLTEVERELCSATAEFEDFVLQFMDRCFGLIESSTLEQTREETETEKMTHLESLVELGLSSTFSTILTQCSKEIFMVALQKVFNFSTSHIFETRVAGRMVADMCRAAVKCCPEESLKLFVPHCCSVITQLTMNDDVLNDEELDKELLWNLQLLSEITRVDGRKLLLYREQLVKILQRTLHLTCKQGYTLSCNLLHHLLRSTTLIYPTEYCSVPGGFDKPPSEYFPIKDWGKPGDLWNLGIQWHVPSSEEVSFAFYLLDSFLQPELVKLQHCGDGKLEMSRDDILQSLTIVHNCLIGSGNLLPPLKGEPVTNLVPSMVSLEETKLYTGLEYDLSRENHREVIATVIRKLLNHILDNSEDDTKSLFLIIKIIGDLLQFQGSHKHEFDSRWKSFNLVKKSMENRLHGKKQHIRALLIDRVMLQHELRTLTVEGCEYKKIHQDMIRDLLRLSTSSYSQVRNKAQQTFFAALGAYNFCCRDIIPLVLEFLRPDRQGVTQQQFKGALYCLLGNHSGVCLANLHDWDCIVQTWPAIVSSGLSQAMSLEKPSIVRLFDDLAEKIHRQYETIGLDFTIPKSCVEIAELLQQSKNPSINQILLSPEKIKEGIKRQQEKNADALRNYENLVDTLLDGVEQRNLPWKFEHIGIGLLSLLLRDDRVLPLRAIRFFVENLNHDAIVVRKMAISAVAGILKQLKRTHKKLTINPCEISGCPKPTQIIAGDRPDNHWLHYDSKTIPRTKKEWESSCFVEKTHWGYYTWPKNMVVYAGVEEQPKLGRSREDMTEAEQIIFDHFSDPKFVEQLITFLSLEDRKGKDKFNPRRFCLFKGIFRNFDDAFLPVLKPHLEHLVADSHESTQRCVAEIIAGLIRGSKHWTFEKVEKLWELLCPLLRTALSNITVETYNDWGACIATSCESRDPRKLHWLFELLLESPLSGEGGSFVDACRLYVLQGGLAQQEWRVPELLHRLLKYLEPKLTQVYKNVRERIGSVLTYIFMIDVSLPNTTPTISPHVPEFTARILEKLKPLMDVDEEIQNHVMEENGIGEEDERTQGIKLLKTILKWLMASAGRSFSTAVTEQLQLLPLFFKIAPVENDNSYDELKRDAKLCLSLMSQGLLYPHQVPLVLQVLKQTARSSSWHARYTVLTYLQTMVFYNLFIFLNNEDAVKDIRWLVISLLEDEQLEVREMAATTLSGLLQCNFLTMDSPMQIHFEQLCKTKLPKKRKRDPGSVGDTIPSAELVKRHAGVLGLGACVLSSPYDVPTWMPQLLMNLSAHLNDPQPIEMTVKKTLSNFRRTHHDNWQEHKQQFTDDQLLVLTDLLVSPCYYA
# [5] = target: T2, cysteines in MDA-MB-231 and Ramos cells (Homo sapiens, UniProt Q96HE7)
# T2 sequence (Q96HE7 24-468): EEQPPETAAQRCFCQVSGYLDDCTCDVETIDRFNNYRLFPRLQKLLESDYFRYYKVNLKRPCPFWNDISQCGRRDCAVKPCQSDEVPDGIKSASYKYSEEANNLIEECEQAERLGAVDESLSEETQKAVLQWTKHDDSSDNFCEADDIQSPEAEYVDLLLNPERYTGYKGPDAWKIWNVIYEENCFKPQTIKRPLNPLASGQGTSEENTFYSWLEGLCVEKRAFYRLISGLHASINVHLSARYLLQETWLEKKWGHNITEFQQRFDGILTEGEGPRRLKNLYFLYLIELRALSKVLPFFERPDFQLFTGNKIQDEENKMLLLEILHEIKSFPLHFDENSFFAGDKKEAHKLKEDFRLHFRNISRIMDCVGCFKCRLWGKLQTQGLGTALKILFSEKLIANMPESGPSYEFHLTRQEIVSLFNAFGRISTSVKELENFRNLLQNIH
# [6] = target: T3, cysteines in MDA-MB-231 and Ramos cells (Homo sapiens, UniProt Q9BTA9)
# T3 sequence (Q9BTA9 1-647): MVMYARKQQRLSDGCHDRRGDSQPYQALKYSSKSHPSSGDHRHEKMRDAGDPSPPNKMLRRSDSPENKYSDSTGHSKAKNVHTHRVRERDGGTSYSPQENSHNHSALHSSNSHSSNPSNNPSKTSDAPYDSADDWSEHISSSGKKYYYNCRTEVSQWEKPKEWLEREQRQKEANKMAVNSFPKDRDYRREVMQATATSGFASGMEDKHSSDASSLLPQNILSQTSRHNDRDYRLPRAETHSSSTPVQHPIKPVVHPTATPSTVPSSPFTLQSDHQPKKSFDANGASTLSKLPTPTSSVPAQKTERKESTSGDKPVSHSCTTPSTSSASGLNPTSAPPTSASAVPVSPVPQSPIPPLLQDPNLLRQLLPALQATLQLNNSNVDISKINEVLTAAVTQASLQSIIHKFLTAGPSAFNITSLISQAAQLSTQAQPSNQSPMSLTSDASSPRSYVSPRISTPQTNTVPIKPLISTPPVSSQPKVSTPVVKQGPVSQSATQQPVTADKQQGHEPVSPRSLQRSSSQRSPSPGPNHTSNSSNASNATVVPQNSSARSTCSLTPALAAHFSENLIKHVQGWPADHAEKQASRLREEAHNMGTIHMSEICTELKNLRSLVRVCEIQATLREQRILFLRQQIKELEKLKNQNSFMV
# [7] = target: T4, cysteines in MDA-MB-231 and Ramos cells (Homo sapiens, UniProt Q9NYL9)
# T4 sequence (Q9NYL9 1-352): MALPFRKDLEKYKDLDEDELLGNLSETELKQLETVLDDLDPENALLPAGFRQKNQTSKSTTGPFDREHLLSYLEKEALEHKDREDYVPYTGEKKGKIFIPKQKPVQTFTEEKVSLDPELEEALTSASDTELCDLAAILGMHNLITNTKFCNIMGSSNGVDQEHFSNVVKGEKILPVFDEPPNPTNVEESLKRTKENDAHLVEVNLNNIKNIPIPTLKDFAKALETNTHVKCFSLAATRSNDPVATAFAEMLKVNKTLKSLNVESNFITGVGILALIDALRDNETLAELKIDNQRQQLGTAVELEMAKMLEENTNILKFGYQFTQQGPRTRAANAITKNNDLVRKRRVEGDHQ
# Sequence of cysteines in MDA-MB-231 and Ramos cells (Homo sapiens, UniProt P04406) (P04406 whole entry): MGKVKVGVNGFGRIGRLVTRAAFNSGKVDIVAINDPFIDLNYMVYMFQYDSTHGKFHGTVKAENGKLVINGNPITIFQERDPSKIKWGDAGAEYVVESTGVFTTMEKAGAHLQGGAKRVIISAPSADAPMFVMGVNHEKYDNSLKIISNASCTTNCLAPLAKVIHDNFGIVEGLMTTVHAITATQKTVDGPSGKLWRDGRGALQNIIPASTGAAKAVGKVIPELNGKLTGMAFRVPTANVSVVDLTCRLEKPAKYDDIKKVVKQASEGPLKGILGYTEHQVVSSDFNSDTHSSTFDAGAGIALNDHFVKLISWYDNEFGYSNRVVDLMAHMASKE
compound,measurement,setting,value
COc1cc2c(cc1OC)CN(C(=O)CCl)CC2 [compound 8],isoTOP-ABPP reactivity O00299_C24 CLIC1,[1],10.3
same,isoTOP-ABPP reactivity P04406_C152 GAPDH,[2],1.1
same,isoTOP-ABPP reactivity P46734_C207 MAP2K3,[3],0.8
same,isoTOP-ABPP reactivity Q14997_C1840 PSME4,[4],20.0
same,isoTOP-ABPP reactivity Q96HE7_C241 ERO1L,[5],3.7
same,isoTOP-ABPP reactivity Q9BTA9_0553 WAC,[6],9.6
same,isoTOP-ABPP reactivity Q9NYL9_C132 TMOD3,[7],0.9
